Assays:
Format in all cases: in vivo
[1] = system: Diabrotica balteata (Corn Root Worm); assay: Diabrotica balteata (corn root worm), sprayed maize sprouts, L2 larvae; conditions: 96 h, application rate of 200 ppm, 4 days after infestation, read-out: control in at least one of the two categories (mortality or growth inhibition)
Procedure: Maize sprouts placed onto an agar layer in 24-well microtiter plates were treated with aqueous test solutions prepared from 10′000 ppm DMSO stock solutions by spraying. After drying, the plates were infested with L2 larvae (6 to 10 per well). The samples were assessed for mortality and growth inhibition in comparison to untreated samples 4 days after infestation.

[2] = system: Tetranychus urticae (Two-Spotted Spider Mite); assay: Tetranychus urticae feeding/contact activity, bean leaf discs; conditions: foliar, 192 h
Procedure: Bean leaf discs on agar in 24-well microtiter plates were sprayed with aqueous test solutions prepared from 10′000 ppm DMSO stock solutions. After drying the leaf discs were infested with a mite population of mixed ages. The samples were assessed for mortality on mixed population (mobile stages) 8 days after infestation.

[3] = system: Chilo suppressalis (Striped Rice Stemborer); assay: Chilo suppressalis (striped rice stemborer), artificial diet in 24-well plates, L2 larvae; conditions: 144 h, application rate of 200 ppm, 6 days after infestation, read-out: control in at least one of the three categories (mortality, anti-feedant effect, or growth inhibition)
Procedure: 24-well microtiter plates with artificial diet were treated with aqueous test solutions prepared from 10′000 ppm DMSO stock solutions by pipetting. After drying, the plates were infested with L2 larvae (6-8 per well). The samples were assessed for mortality, anti-feeding effect, and growth inhibition in comparison to untreated samples 6 days after infestation. Control of Chilo suppressalis by a test sample is given when at least one of the categories mortality, anti-feedant effect, and growth inhibition is higher than the untreated sample.

[4] = system: Myzus persicae (Green Peach Aphid); assay: Myzus persicae systemic activity, roots of pea seedlings in test solution; conditions: 144 h, test rate of 24 ppm, 6 days after placing seedlings into test solutions
Procedure: Roots of pea seedlings infested with an aphid population of mixed ages were placed directly into aqueous test solutions prepared from 10′000 DMSO stock solutions. The samples were assessed for mortality 6 days after placing seedlings into test solutions.

[5] = system: Myzus persicae (Green Peach Aphid); assay: Myzus persicae feeding/contact activity, eggplant leaf discs; conditions: foliar, 144 h, application rate of 200 ppm, 6 days after infestation, read-out: growth inhibition
Procedure: (§1) Eggplant leaf discs were placed onto agar in a 24-well microtiter plate and sprayed with aqueous test solutions prepared from 10′000 ppm DMSO stock solutions. After drying, the leaf discs were infested with an aphid population of mixed ages. The samples were assessed for mortality 6 days after infestation.

[6] = system: Myzus persicae (Green Peach Aphid); assay: Myzus persicae intrinsic activity, sucrose solution under Parafilm; conditions: 120 h, application rate of 12.5 ppm, 5 days after infestation, read-out: control (assessed for mortality)
Procedure: Test compounds prepared from 10′000 ppm DMSO stock solutions were applied by pipette into 24-well microtiter plates and mixed with sucrose solution. The plates were closed with a stretched Parafilm. A plastic stencil with 24 holes was placed onto the plate and infested pea seedlings were placed directly on the Parafilm. The infested plate was closed with a gel blotting paper and another plastic stencil and then turned upside down. The samples were assessed for mortality 5 days after infestation.

[7] = system: Bemisia tabaci (Cotton White Fly); assay: Bemisia tabaci feeding/contact activity, cotton leaf discs, adult white flies; conditions: foliar, 144 h, application rate of 200 ppm, 6 days after incubation
Procedure: Cotton leaf discs were placed on agar in 24-well microtiter plates and sprayed with aqueous test solutions prepared from 10′000 ppm DMSO stock solutions. After drying the leaf discs were infested with adult white flies. The samples were checked for mortality 6 days after incubation.

[8] = system: Myzus persicae (Green Peach Aphid); assay: Myzus persicae feeding/contact activity, sunflower leaf discs; conditions: foliar, 144 h, application rate of 200 ppm, 6 days after infestation
Procedure: as §1, with “Sunflower” for “Eggplant”

[9] = system: Spodoptera littoralis (Egyptian Cotton Leaf Worm); assay: Spodoptera littoralis (Egyptian cotton leaf worm), cotton leaf discs, L1 larvae; conditions: foliar, 72 h, application rate of 200 ppm, 3 days after infestation, read-out: control in at least one of the three categories (mortality, anti-feedant effect, or growth inhibition)
Procedure: Cotton leaf discs were placed onto agar in 24-well microtiter plates and sprayed with aqueous test solutions prepared from 10′000 ppm DMSO stock solutions. After drying the leaf discs were infested with five L1 larvae. The samples were assessed for mortality, anti-feeding effect, and growth inhibition in comparison to untreated samples 3 days after infestation. Control of Spodoptera littoralis by a test sample is given when at least one of the categories mortality, anti-feedant effect, and growth inhibition is higher than the untreated sample.

[10] = system: Plutella xylostella (Diamond Back Moth); assay: Plutella xylostella (diamond back moth), artificial diet, eggs; conditions: 192 h, application rate of 200 ppm, 8 days after infestation, read-out: effect in at least one of the two categories (mortality or growth inhibition)
Procedure: 24-well microtiter plates with artificial diet were treated with aqueous test solutions prepared from 10′000 ppm DMSO stock solutions by pipetting. After drying, Plutella eggs were pipetted through a plastic stencil onto a gel blotting paper and the plate was closed with it. The samples were assessed for mortality and growth inhibition in comparison to untreated samples 8 days after infestation.

Structure (SMILES) | percent control (mortality or growth inhibition) at 200 ppm [1] [%] | percent control (mortality, anti-feedant effect or growth inhibition) at 200 ppm [3] [%] | mortality at 24 ppm [4] [%] | mortality at 200 ppm [5] [%] | further results
NC(=O)[C@H]1[C@@H]2CCCO[C@@H]21 (relative stereo) [Compound P1, rel-(1R,6R,7R)-2-oxabicyclo[4.1.0]heptane-7-carboxamide] | ≥ 80 | – | – | – | mortality at 200 ppm [2]: ≥ 80%
O=C(NCc1cc(Cl)ccc1Cl)[C@H]1[C@@H]2OCCO[C@@H]21 [Compound P19, (1α,6α,7α)-N-[(2,5-dichlorophenyl)methyl]-2,5-dioxabicyclo[4.1.0]heptane-7-carboxamide] | ≥ 80 | – | – | – | –
O=C(NOC1CCC1)[C@H]1[C@@H]2OCCO[C@@H]21 [Compound P31, (1α,6α,7α)-N-(cyclobutoxy)-2,5-dioxabicyclo[4.1.0]heptane-7-carboxamide] | ≥ 80 | ≥ 80 | ≥ 80 | ≥ 80 | –
CCC(NC(=O)[C@H]1[C@@H]2OCCO[C@@H]21)c1ccc(Cl)cc1 (stereo partly drawn) [Compound P40, (1α,6α,7α)-N-[1-(4-chlorophenyl)propyl]-2,5-dioxabicyclo[4.1.0]heptane-7-carboxamide] | ≥ 80 | – | – | – | –
CNC(=O)c1ccccc1NC(=O)[C@H]1[C@@H]2OCCO[C@@H]21 [Compound P6] | – | – | ≥ 80 | – | mortality at 12.5 ppm [6]: ≥ 80%
Cc1ccc(NC(=O)[C@H]2[C@@H]3OCCO[C@@H]32)c(F)c1 [Compound P17, (1α,6α,7α)-N-(2-fluoro-4-methyl-phenyl)-2,5-dioxabicyclo[4.1.0]heptane-7-carboxamide] | ≥ 80 | – | – | – | –
O=C(NOCc1ccccc1)[C@H]1[C@@H]2OCCO[C@@H]21 [Compound P13, (1α,6α,7α)-N-benzyloxy-2,5-dioxabicyclo[4.1.0]heptane-7-carboxamide] | – | – | ≥ 80 | ≥ 80 | mortality at 200 ppm [7]: ≥ 80%
O=C(NC1CCOCC1)[C@H]1[C@@H]2OCCO[C@@H]21 [Compound P37, (1α,6α,7α)-N-tetrahydropyran-4-yl-2,5-dioxabicyclo[4.1.0]heptane-7-carboxamide] | – | – | ≥ 80 | – | –
NC(=O)[C@H]1[C@@H]2OCCO[C@@H]21 [Compound P5, (1α,6α,7α)-2,5-dioxabicyclo[4.1.0]heptane-7-carboxamide] | ≥ 80 | ≥ 80 | ≥ 80 | ≥ 80 | mortality at 200 ppm [8]: ≥ 80%; mortality at 12.5 ppm [6]: ≥ 80%
Cc1ccc(NC(=O)[C@H]2[C@@H]3OCCO[C@@H]32)cc1 [Compound P18, (1α,6α,7α)-N-(p-tolyl)-2,5-dioxabicyclo[4.1.0]heptane-7-carboxamide] | ≥ 80 | – | ≥ 80 | – | –
CN(C)C(=O)[C@H]1[C@@H]2OCCO[C@@H]21 [Compound P10, (1α,6α,7α)-N,N-dimethyl-2,5-dioxabicyclo[4.1.0]heptane-7-carboxamide] | – | ≥ 80 | – | – | –
O=C(NCC1CC1)[C@H]1[C@@H]2OCCO[C@@H]21 [Compound P28, (1α,6α,7α)-N-(cyclopropylmethyl)-2,5-dioxabicyclo[4.1.0]heptane-7-carboxamide] | – | – | – | – | percent control (mortality, anti-feedant effect or growth inhibition) at 200 ppm [9]: ≥ 80%
Cn1ccc(NC(=O)[C@H]2[C@@H]3OCCO[C@@H]32)n1 [Compound P30, (1α,6α,7α)-N-(1-methylpyrazol-3-yl)-2,5-dioxabicyclo[4.1.0]heptane-7-carboxamide] | ≥ 80 | – | ≥ 80 | – | –
O=C(Nc1cc2ccccn2n1)[C@H]1[C@@H]2OCCO[C@@H]21 [Compound P33] | ≥ 80 | – | – | – | –
O=C(O)[C@H]1[C@@H]2OCCO[C@@H]21 [Compound P7, (1α,6α,7α)-2,5-dioxabicyclo[4.1.0]heptane-7-carboxylic acid] | – | ≥ 80 | ≥ 80 | ≥ 80 | mortality at 12.5 ppm [6]: ≥ 80%; mortality at 200 ppm [7]: ≥ 80%
O=C(NOCc1c(F)cccc1F)[C@H]1[C@@H]2OCCO[C@@H]21 [Compound P14, (1α,6α,7α)-N-[(2,6-difluorophenyl)methoxy]-2,5-dioxabicyclo[4.1.0]heptane-7-carboxamide] | – | ≥ 80 | ≥ 80 | ≥ 80 | –
CCOC(=O)[C@H]1[C@@H]2OCCO[C@@H]21 [Compound P8, Ethyl(1α,6α,7α)-2,5-dioxabicyclo[4.1.0]heptane-7-carboxylate] | ≥ 80 | ≥ 80 | ≥ 80 | ≥ 80 | mortality at 12.5 ppm [6]: ≥ 80%; percent effect (mortality or growth inhibition) at 200 ppm [10]: ≥ 80%; mortality at 200 ppm [7]: ≥ 80%
Cc1cccc(NC(=O)[C@H]2[C@@H]3OCCO[C@@H]32)c1 [Compound P16, (1α,6α,7α)-N-(m-tolyl)-2,5-dioxabicyclo[4.1.0]heptane-7-carboxamide] | – | – | – | ≥ 80 | –
Cn1cc(NC(=O)[C@H]2[C@@H]3OCCO[C@@H]32)cn1 [Compound P36, (1α,6α,7α)-N-(1-methylpyrazol-4-yl)-2,5-dioxabicyclo[4.1.0]heptane-7-carboxamide] | ≥ 80 | – | ≥ 80 | ≥ 80 | –
CCONC(=O)[C@H]1[C@@H]2OCCO[C@@H]21 [Compound P15, (1α,6α,7α)-N-ethoxy-2,5-dioxabicyclo[4.1.0]heptane-7-carboxamide] | – | ≥ 80 | ≥ 80 | ≥ 80 | mortality at 12.5 ppm [6]: ≥ 80%; percent effect (mortality or growth inhibition) at 200 ppm [10]: ≥ 80%
O=C(NCc1ccccc1)[C@H]1[C@@H]2OCCO[C@@H]21 [Compound P41, (1α,6α,7α)-N-benzyl-2,5-dioxabicyclo[4.1.0]heptane-7-carboxamide] | – | ≥ 80 | – | – | –
Cc1ccccc1NC(=O)[C@H]1[C@@H]2OCCO[C@@H]21 [Compound P29, (1α,6α,7α)-N-(o-tolyl)-2,5-dioxabicyclo[4.1.0]heptane-7-carboxamide] | ≥ 80 | – | ≥ 80 | – | –
O=C(Nc1cccn(-c2ccccc2)c1=O)[C@H]1[C@@H]2CCCO[C@@H]21 (relative stereo) [Compound P4, rel-(1S,6S,7S)-N-(2-oxo-1-phenyl-3-pyridyl)-2-oxabicyclo[4.1.0]heptane-7-carboxamide] | – | – | – | – | percent control (mortality, anti-feedant effect or growth inhibition) at 200 ppm [9]: ≥ 80%
Cn1nccc1NC(=O)[C@H]1[C@@H]2OCCO[C@@H]21 [Compound P38, (1α,6α,7α)-N-(2-methylpyrazol-3-yl)-2,5-dioxabicyclo[4.1.0]heptane-7-carboxamide] | ≥ 80 | – | – | – | –

Reference: patent US20260271927A1, “PESTICIDALLY ACTIVE BICYCLIC COMPOUNDS” (SYNGENTA CROP PROTECTION AG, priority 2023, published 2026)
